# From EP3958980B1, “TARGETED NOVEL TRIAZOLOTHIADIAZINE DERIVATIVES FOR THE TREATMENT OF LUNG CANCER” (Anadolu Universitesi, priority 2020, dated 2021)
# “And” between values parts separate entries of the source, which are not always exact repeats. Equal values may be shown once.
# Columns and labels:
# [1] = tested on: ROCK; assay: ROCK activity assay on lysates of treated A549 cells; type: cell-based, human; settings: for ROCK inhibition (in words) / ROCK Inhibition%: 24 hours; for ROCK inhibition (in words): IC50 and IC50/2 concentrations; for ROCK Inhibition%: IC50 concentration (9: 5.75; 11: 0.73; 12: 0.80; 14: 2.63; Cisplatin: 23.00 µg/mL)
# Description: (§1) The intracellular COX, Akt and ROCK inhibitory effects of the active compounds determined with the MTT assay, were measured with the colorimetric assay according to the manufacturer's recommendations.
# Two wells were used for each sample. 90 µL active ROCK-II positive control and samples were added to the wells of the substrate plate. 10 X kinase solution comprising DTT and ATP was added to 10 µL wells and the kinase reaction was started and the plate was incubated at 30 °C for 30-60 minutes. 50 µL 0.5 M EDTA was added to each well at pH=8.0 and the reaction was stopped. The wells were emptied and they were washed 3 times with 250 µL 1X washing solution. After the final washing, 100 µL anti-phospho-MYPT1 (Thr696) antibody was added. The plate was closed and it was incubated at room temperature for 1 hour on an orbital shaker. After the wells were washed three times again, 100 µL HRP-conjugated secondary antibody was added and it was incubated again at room temperature for 1 hour on an orbital shaker. After the wells were emptied, they were washed 3 times. Then 100 µL of substrate solution was added. It was incubated at room temperature for 5-20 minutes on an orbital shaker. 100 µL of stop solution was added. The absorbance of each well was read at a wavelength of 450 nm in a spectrophotometric microplate reader.
# [2] = tested on: A549 cells; assay: Annexin V FITC / PI flow cytometry (apoptosis); type: cell-based, human; settings: IC50 concentrations; for Early apoptotic cells% / Late apoptotic cells% / Necrosis% / Viable cells%: 24 hours; for early and late apoptotic effects: sum of early and late apoptotic cells
# Description: Briefly, after the cells were centrifuged for 4 minutes at 800 rpm, they were washed twice with 1 × PBS and were suspended in the 1 × Annexin-V binding solution at a concentration of 2-3 × 10^6 cell/mL and then 100 µL of the cell solution was transferred into tubes. Then, 5 µL of Annexin-V Fluorescein isothiocyanate (FITC) and 10 µL of propidium iodide (PI) solution were added to each tube, after incubation for 15 minutes at room temperature, 400 µL × Annexin-V binding solution was added to each tube and the cells were analyzed by flow cytometry (BD FACSCalibur™) within 1 hour. The early and late apoptotic cell percentages were calculated according to positive control.
# [3] = tested on: A549 cells; assay: JC-1 staining, mitochondrial membrane integrity by flow cytometry; type: cell-based, human; settings: 24 hours, IC50 concentrations
# Description: After the active compounds were determined with the MTT assay, the determination of mitochondrial membrane integrity in A549 cells depending on IC50 concentrations were carried out in flow cytometry with BD, Pharmingen flow cytometry kit according to the manufacturer's recommendations. Briefly, the cells were seeded with optimal density (must not exceed 1×10^6 cell/mL). Following this, the cells were incubated with concentrations and time suitable for the compounds to be tested. After treatment, each cell suspension was transferred into a 15 mL polystyrene centrifuge tube and the cells were centrifuged at 400 × g for 5 minutes at room temperature, and supernatant was removed. Later, 0.5 mL freshly prepared working solution was added to each pellet and was vortexed. The cells were incubated in JC-1 working solution at 37 °C for 10-15 minutes and they were washed twice. In the first wash, 2 mL 1X assay buffer was added and the cells were precisely suspended. Following this, the cells were centrifuged at 400 × g for 5 minutes and the supernatant was removed carefully. In the next wash, 1 mL 1X assay buffer was added and was vortexed. After the cells were centrifuged at 400 × g for 5 minutes, each cell pellet was suspended in a 0.5 mL 1X assay buffer and was vortexed. Finally, the cell is analyzed with flow cytometry.
# [4] = tested on: A549 human lung adenocarcinoma cells; assay: MTT assay, in vitro cytotoxic activity on A549; type: cell-based; settings: for IC50: Homo sapiens, A549, 24 hour incubation, read-out: IC50 values (µg/mL) A549 cell line
# Description: The in vitro cytotoxic effects of the compounds were determined with the MTT assay. For this purpose, MTT test was performed using A549 and CCD-19Lu cell lines. After the cell lines used in the invention were centrifuged following taking them out from liquid nitrogen (-196 °C), the cells were cultured in a CO2 incubator comprising 5% CO2 at 37 °C in flasks containing 10% fetal bovine serum (FBS), where CCD-19Lu cells were cultured with Dulbecco's Modified Eagle's Medium (DMEM) and A549 cells were cultured with Roswell Park Memorial Institute (RPMI). The cells that reach the sufficient number for the assay, were seeded to 96 well plates such that 2×10^3 cells were placed in each well and at the same time, components at concentrations of 1-500 µg/mL were added to cells and they were incubated at 37 °C. At the end of the 24 hour incubation period, the MTT powder (5 mg/mL in 1 × phosphate buffered saline (PBS)) was added to each well (20 µL). After a 2-4 h period under the same conditions, the medium was removed from the plate and 100 µL of DMSO was added to each well to dissolve the dye and kept for 10 minutes. Then the plates were read at a wavelength of 540 nm using ELx808-IU Bio-Tek plate reader. The control cell viability which was not treated with the components was accepted to be 100% and the viability rates of the cells were expressed as %. […] According to the results obtained, the dose range was extended until the IC50 value was determined. MTT assay is a frequently used method which measures the cytotoxic effects of the compounds on the cells by converting the yellow colored MTT stain into purple colored formazan crystals via the mitochondrial succinate dehydrogenase activity. In the cytotoxic activity tests of the compounds, A549 lung adenocarcinoma and CCDLu19 normal lung fibroblast cell lines were used.
# [5] = target: T1, COX-1 (Homo sapiens, UniProt P23219); assay: COX activity assay (colorimetric kit) on lysates of treated A549 cells, COX-1; type: cell-based; settings: 24 hours incubation, IC50 concentrations
# T1 construct: endogenous in cells; host or cells: A549
# T1 sequence (P23219 24-599): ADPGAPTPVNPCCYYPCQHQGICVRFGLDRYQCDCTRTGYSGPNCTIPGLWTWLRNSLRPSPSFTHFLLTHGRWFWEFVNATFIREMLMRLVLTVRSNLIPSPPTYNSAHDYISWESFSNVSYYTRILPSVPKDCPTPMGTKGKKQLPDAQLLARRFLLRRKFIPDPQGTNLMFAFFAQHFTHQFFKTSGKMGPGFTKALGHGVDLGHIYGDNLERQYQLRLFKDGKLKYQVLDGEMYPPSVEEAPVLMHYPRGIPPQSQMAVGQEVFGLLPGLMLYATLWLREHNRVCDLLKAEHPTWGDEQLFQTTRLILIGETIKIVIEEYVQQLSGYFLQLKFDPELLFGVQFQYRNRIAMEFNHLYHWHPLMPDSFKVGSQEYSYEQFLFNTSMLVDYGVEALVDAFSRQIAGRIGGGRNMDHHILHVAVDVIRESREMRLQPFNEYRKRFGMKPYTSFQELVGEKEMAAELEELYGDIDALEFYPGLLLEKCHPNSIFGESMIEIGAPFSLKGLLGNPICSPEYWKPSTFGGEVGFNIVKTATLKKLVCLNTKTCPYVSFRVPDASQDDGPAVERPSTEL
# Description: as §1
# COX activity was carried out using Cayman COX activity assay kit in compliance with the manufacturer's recommendations. Briefly, 150 µL of each sample was kept in boiling water for 5 minutes and centrifuged at 8000 × g for 1 minute and it was used to obtain background values. […] 110 µL assay solution, 10 µL hemin and 40 µL sample, 10 µL DuP-697 or SC-560 was added to the inhibitor wells (DuP-697 inhibits COX-2 activity; while SC-560 inhibits COX-1 activity). The plate was shaked for a few seconds and it was left at 25 °C for 5 minutes. 20 µL colorimetric substrate was added to all wells. Moreover, a reaction was started by adding 20 µL arachidonic acid solution and the plate was shaked for a few seconds and it was left at 25 °C for 5 minutes. The absorbance values were read at 540 nm.
# [6] = tested on: A549 cells; assay: Cell cycle arrest by flow cytometry; type: cell-based, human; settings: IC50 doses, 24 hours
# Description: After the active compounds were determined with the MTT assay, their effects on the cell cycle in A549 cells depending on IC50 concentrations were carried out according to the manufacturer's recommendations. Briefly, the cells were suspended in a citrate buffer solution. The cells were centrifuged at 400 × g for 5 minutes at room temperature. The supernatant was removed and 250 µL solution A was added on the pellet. Following this, 200 µL solution B was added and it was kept at room temperature 10 minutes. Afterwards 200 µL solution C was added and it was kept at +4 °C for 10 minutes. The cells were analyzed with flow cytometry using BD Biosciences ModFit software.
SMILES,ROCK inhibition (in words) [1],ROCK Inhibition% [1],Early apoptotic cells% [2],Late apoptotic cells% [2],Necrosis% [2],Viable cells% [2],early and late apoptotic effects [2],Mitochondrial membrane depolarized (P2) cells% [3],Mitochondrial membrane polarized (P1) cells% [3],IC50 [4],COX-1 Inhibition% [5],COX-1 activity (U/mL) [5],G0/G1% [6],G2/M% [6],S% [6],ROCK Inhibition% ([1]; listed as cisplatin),IC50 values (µg/mL) A549 cell line ([4]; 24 hour incubation),IC50 (ROCK inhibition) ([1]; 24 hours incubation)
CS(=O)(=O)c1ccc(C2=Nn3c(CCc4ccc5c(c4)OCO5)nnc3SC2)cc1 [Compound 9],did not exhibit significant ROCK inhibition,6.89±0.44%,5.00%,16.20%,6.30%,72.50%,21.20%,8.80%,91.10%,5.75 ± 2.47 µg/mL,35.21%,3.41 U/mL,53.29%,9.66%,37.04%,–,–,–
"N.N.[Cl][Pt][Cl] [Cisplatin, reference compound]",–,29.84±0.16%,14.70%,30.10%,28.70%,–,44.80%,48.00%,52.40%,–,24.65%,3.08 U/mL,45.92%,4.00%,50.07%,29.84%,23.00 ± 1.41 µg/mL,–
"FC(F)(F)c1ccc(C2=Nn3c(CCc4ccc5c(c4)OCO5)nnc3SC2)cc1 [Compound 11, 3-[2-(1,3-Benzodioxole-5-yl)ethyl]-6-(4-trifluoromethylphenyl)-7H-[1,2,4]triazolo [3,4-b][1,3,4]thiadiazine]",did not exhibit significant ROCK inhibition,–,2.90%,9.90%,14.80%,72.30%,12.80%,58.80%,41.30%,0.73 ± 0.16 µg/mL,54.18%,1.88 U/mL,57.29%,8.15%,34.57%,–,–,–
"c1ccc(-c2ccc(C3=Nn4c(CCc5ccc6c(c5)OCO6)nnc4SC3)cc2)cc1 [Compound 14, 3-[2-(1,3-Benzodioxole-5-yl)ethyl]-6-(biphenyl-4-yl)-7H-[1,2,4]triazolo[3,4-b] [1,3,4]thiadiazine]",–,53.85% and 53.85±8.85%,4.20%,21.70%,34.60%,39.50%,25.90% and 34.50%,47.20%,53.20%,2.63 ± 0.72 µg/mL,2.19%,4.15 U/mL,54.92%,7.91%,37.17%,–,–,2.55 ± 0.21 µg/mL
"Fc1cccc(C2=Nn3c(CCc4ccc5c(c4)OCO5)nnc3SC2)c1 [Compound 12, 3-[2-(1,3-Benzodioxole-5-yl)ethyl]-6-(3-fluorophenyl)-7H-[1,2,4]triazolo [3,4-b] [1,3,4]thiadiazine]",did not exhibit significant ROCK inhibition,–,4.80%,29.70%,40.80%,24.70%,34.50% and 25.90%,47.00%,53.00%,0.8 ± 0.05 µg/mL,–,2.51 U/mL,54.20%,6.52%,39.28%,–,–,–
